Results reported in paper PMC6910931, “Converging TLR9 and PI3Kgamma signaling induces sterile inflammation and organ damage” (Scientific Reports, 2019).
Entries after “also recorded” stand apart in the source; their conditions may differ.

Columns and labels:
C57BL/6 mice [1] = test: APAP-induced liver injury (DILI) model; type: in vivo; conditions: for reduction in serum ALT levels: AS605240 20 mg/Kg oral 6 and 12 hours after APAP
Protocol: Mice were fasted for 15 hours before oral APAP administration (500 mg/Kg) or vehicle (sterile saline). After 24 hours mice were anesthetized for respiratory mechanics analysis (described below) and then killed for blood (serum), liver, bronchoalveolar lavage fluid (BALF), and lung collection. Alanine aminotransferase (ALT) levels were measured in the serum using an enzyme activity test (Bioclin). The myeloperoxidase activity assay was performed as described before. BALF was performed by washing the lungs twice with 1 mL of PBS 10 mM EDTA with a polyethylene cannula 18 G resulting in a total of 2 mL of lavage. Cells were centrifuged and used for total cell count and differential cell count after Romanowsky staining (Panótico Rápido LB)[59]. Fragments of liver and the left lobe of the lungs were fixed and then sectioned for histological analysis (Haematoxylin and Eosin). For the drug-induced liver injury model, mice were orally treated with AS605240 6 and 12 hours after APAP treatment or with n-Acetylcysteine (NAC) 1 hour before APAP or 6 and 12 hours after APAP treatment. AS605240 was diluted in 0,9% Saline + 0.5% CMC + 0.1% Tween 20 and given in a dose of 20 mg/Kg and NAC was diluted in 0.9% saline and given in a dose of 600 mg/Kg.
Animals were anesthetized with a mixture of Ketamine/Xylazine (200 mg/Kg and 15 mg/Kg, respectively) as indicated by Buxco. Dynamic compliance (mL/cm H2O), lung resistance (cm H2O × s/mL) and Forced Expiratory Volume at 100 ms (FEV100) (mL) were assessed in tracheostomized and mechanically ventilated mice using Forced Manoeuvres Platform (Buxco)[53].
(§1) In this study, female C57BL/6 mice from 8 to 12 weeks of age were used in all experiments except for the chimaera mice. Animals were obtained from the UFMG’s Centro de Bioterismo and kept in the Laboratório de Imunofarmacologia with food and water ad libitum and day/night light cycles. For all investigations, mice were humanely sacrificed using an intra-peritoneal overdose of Ketamine/Xylazine at a dose equivalent to at least five times the dose used for anesthetising the mice. The animal studies presented here were registered and approved by the UFMG’s Comitê de Ética em Utilização Animal (CEUA) No. 191/2010 and 51/2011 and all the procedures were performed in accordance with the guidelines of the Conselho Nacional De Controle De Experimentação Animal’s resolution of Brazilian Ministry of Science, Technology, Innovation and Communication.

C57BL/6 mice [2] = test: CpG-induced pleurisy model; type: in vivo; conditions: CpG 750 ng/cavity, 12 hours
Protocol: Animals received one single injection of C-class CpG in the pleural cavity with the indicated dose of agonist. At indicated timepoints, mice were anesthetized intraperitoneally with a mixture of Ketamine/Xylazine and then killed with overdose of intravenous anaesthetic (80 mg/Kg and 15 mg/Kg, respectively). Pleural cavity was washed two times with 1 mL of PBS 10 mM EDTA resulting in a total of 2 mL of lavage. Cells were centrifuged and used for total cell count and differential cell count after Romanowsky staining (Panótico Rápido LB). For the pleurisy model, mice were orally treated with AS605240 twice: 1 h prior the CpG injection and then 6 h after CpG, 20 mg/kg diluted in 0,9% Saline + 0.5% CMC + 0.1% Tween 20.
as §1

[3] = APAP 500 mg/Kg, AS605240 20 mg/Kg, vs WT mice

With `O=C1NC(=O)/C(=C\c2ccc3nccnc3c2)S1` [AS605240] the “lung remote damage (histological score of lung)” value (C57BL/6 mice [1]; APAP 500 mg/Kg, AS605240 20 mg/Kg) was “reduce lung remote damage”, the “reduction in serum ALT levels” value (C57BL/6 mice [1]; APAP 500 mg/Kg, 24 h) was “approximately 50%” and the “reduction in serum ALT levels” value (C57BL/6 mice [1]; APAP 500 mg/Kg, 24 h, listed as AS650240) was 50%. The “ALT levels in the serum” value (C57BL/6 mice [1]; [3]) was “lower levels of ALT in the serum”, the “MPO levels in the liver” value (C57BL/6 mice [1]; [3]) was “lower MPO levels in the liver” and the “areas of necrotic tissue in the liver” value (C57BL/6 mice [1]; [3]) was “less areas of necrotic tissue”. For the same compound, the “migration of mononuclear cells into the pleural cavity” value (C57BL/6 mice [2]; AS605240 20 mg/kg oral) was “lower effect”, the “neutrophil recruitment into the pleural cavity” value (C57BL/6 mice [2]; AS605240 20 mg/kg oral) was “reduced neutrophil recruitment” and the “total leukocytes recruited into the pleural cavity” value (C57BL/6 mice [2]; AS605240 20 mg/kg oral 1 h prior and 6 h after CpG, vs untreated WT) was “less leukocytes recruited into the pleural cavity”.

For `CC(=O)N[C@@H](CS)C(=O)O` [NAC, N-acetyl-cysteine], the “serum ALT levels, therapeutic treatment” value (C57BL/6 mice [1]; NAC 600 mg/Kg 6 and 12 hours after APAP, 24 h) was “not able to reduce ALT levels; also recorded: no impact” and the “serum ALT levels, prophylactic treatment” value (C57BL/6 mice [1]; NAC 600 mg/Kg 1 hour before APAP, 24 h) was “completely abrogated the rise of ALT levels”.
